# Non-standard residues stand in square brackets, D forms with d. Residues, ends and D or L forms follow the SMILES beside them.
# Test system: drug-resistant Mycobacterium tuberculosis
# Details: 5 micrograms per ml
smiles,measurement,value
"CC(C)C[C@H](NC(=O)[C@H](CC(C)C)NC(=O)[C@@H](Cc1c[nH]c2ccccc12)NC(=O)[C@H](Cc1ccccc1)NC(=O)[C@@H](Cc1c[nH]c2ccccc12)NC(=O)[C@H](CCC(N)=O)NC(=O)[C@H](CCC(N)=O)NC(=O)[C@@H]1CCCN1C(=O)[C@H](CCCCN)NC(=O)[C@@H]1CCCN1C(=O)[C@@H](CCCNC(=N)N)NC(=O)[C@@H]1CCCN1C(=O)CNC(=O)[C@H](CC(C)C)NC(=O)[C@H](CC(C)C)NC(=O)[C@H](Cc1ccc(O)cc1)NC(=O)CNC(=O)[C@H](C)NC(=O)[C@H](CO)NC(=O)[C@H](CC(N)=O)NC(=O)[C@H](CC(C)C)NC(=O)[C@@H](NC(=O)[C@H](Cc1c[nH]c2ccccc12)NC(=O)CN)[C@@H](C)O)C(N)=O [Spantide-I, Gly-Trp-Thr-Leu-Asn-Ser-Ala-Gly-Tyr-Leu-Leu-Gly-Pro-D-Arg-Pro-Lys-Pro-Gln-Gln-D-Trp-Phe-D-Trp-Leu-Leu-NH2] (H-GWTLNSAGYLLGP[dR]PKPQQ[dW]F[dW]LL-NH2)",% inhibition,100.0%

# Source: patent US20100204129A1, “USE OF A PEPTIDE AS A THERAPEUTIC AGENT” (priority 2008, published 2010)
